ChEMBL document CHEMBL1127805 (J Med Chem, 1994)

Tests used:
[1] = target: T1, Glutamate receptor ionotropic, NMDA 1 (Rattus norvegicus, UniProt P35439); experiment: Compound was evaluated for in vitro inhibition of spinal cord at NMDA receptor.
Glutamate NMDA receptor [2] = experiment: In vitro inhibition of [3H]glycine at NMDA receptor; format: protein-complex assay
Mus musculus [3] = experiment: In vivo antagonist activity against seizures elicited by audiogenic administered intra peritoneally in mice; format: functional
[4] = target: T1, Glutamate receptor ionotropic, NMDA 1; experiment: Compound was evaluated for in vitro inhibition of cortical slice at NMDA receptor
Mus musculus [5] = experiment: Antagonist activity in electroshock in vivo through intravenous route; format: functional
Mus musculus [6] = experiment: Compound was evaluated for audiogenic seizure in vivo through intra peritoneal route; format: functional
Rattus norvegicus [7] = experiment: Compound was evaluated for neuroprotection, rat MCAO in vivo through iv route; format: functional
[8] = target: Glutamate [NMDA] receptor; experiment: Compound was evaluated for in vitro inhibition of myenteric plexus, guinea pig at NMDA receptor; format: protein-complex assay, Cavia porcellus
Mus musculus [9] = experiment: In vivo antagonist activity against seizures elicited by audiogenic administered icv in mice; format: functional
[10] = target: T1, Glutamate receptor ionotropic, NMDA 1; experiment: Compound was evaluated for in vitro inhibition of cortical neuron at NMDA receptor
Gerbillinae [11] = experiment: Compound was evaluated for neuroprotection, in gerbil seizure model in vivo through intraperitoneal route; format: functional
Glutamate NMDA receptor [12] = experiment: Compound was evaluated for in vitro inhibition of [3H]MK-801 at NMDA receptor; format: protein-complex assay
Rattus norvegicus [13] = experiment: Compound was evaluated for D-Ser-induced cGMP in vivo through ip route; format: functional
[14] = Compound was evaluated for harmaline-induced cGMP seizure in vivo through ip route; format: functional
Rattus norvegicus [15] = experiment: Antagonist activity for neuroprotection, in rat MCAO in vivo through intravenous bolus+infusion route
Mus musculus [16] = experiment: In vivo antagonist activity against seizures elicited by NMDLA in mice administered intravenously; format: functional; conditions: iv
Mus musculus [17] = experiment: Antagonist activity in electroshock model in vivo through intravenous route; format: functional
Mus musculus [18] = experiment: Antagonist activity in PTZ seizure model in vivo through intravenous route; format: functional
Mus musculus [19] = experiment: In vivo antagonist activity against seizures elicited by NMDA in mice administered perorally; format: functional; conditions: po
[20] = target: T1, Glutamate receptor ionotropic, NMDA 1; experiment: Compound was evaluated for in vitro inhibition of cGMP cerebellar slice at NMDA receptor.
Mus musculus [21] = experiment: In vivo antagonist activity against seizures elicited by audiogenic, administered intra peritoneally in mice; format: functional
Mus musculus [22] = experiment: In vivo antagonist activity against seizures elicited by audiogenic, administered perorally in mice; format: functional; conditions: po
[23] = target: T1, Glutamate receptor ionotropic, NMDA 1; experiment: Compound was evaluated for in vitro inhibition of [3H]L-689,560 at NMDA receptor.
[24] = target: T2, Glutamate receptor ionotropic, NMDA 2C (Rattus norvegicus, UniProt Q00961); experiment: Compound was evaluated for in vitro inhibition of [3H]-GABA release at NMDA receptor.
[25] = target: T2, Glutamate receptor ionotropic, NMDA 2C; experiment: Compound was evaluated for in vitro inhibition of cortical slice release at NMDA receptor.
Gerbillinae [26] = experiment: Compound was evaluated for neuroprotection, gerbil in vivo through ip route; format: functional
Mus musculus [27] = experiment: Antagonist activity in PCP hyperactivity seizure model in vivo through subcutaneous route; format: functional; conditions: sc
Mus musculus [28] = experiment: Antagonist activity in amphetamine hyperactivity seizure model in vivo through intraperitoneal route; format: functional; conditions: ip
Mus musculus [29] = experiment: In vivo antagonist activity against seizures elicited by NMDLA in mice administered intraperitoneally; format: functional; conditions: ip
Glutamate NMDA receptor [30] = experiment: Compound was evaluated for in vitro inhibition of [3H]TCP at NMDA receptor; format: protein-complex assay
Mus musculus [31] = experiment: Antagonist activity in forced swim model, in vivo through intraperitoneal route; format: functional; conditions: ip
Mus musculus [32] = experiment: In vivo antagonist activity against seizures elicited by NMDA in mice administered intraperitoneally; format: functional; conditions: ip
Mus musculus [33] = experiment: Antagonist activity in plus-maze in vivo through intraperitoneal route; format: functional; conditions: ip
Mus musculus [34] = experiment: Separation-induced vocalization in vivo through ip route; format: functional
Mus musculus [35] = experiment: Antagonist activity in audiogenic seizure model in vivo through icv route; format: functional
[36] = target: T1, Glutamate receptor ionotropic, NMDA 1; experiment: Compound was evaluated for in vitro inhibition of oocytes at NMDA receptor.; format: cell-based, frog; conditions: oocyte
Glutamate NMDA receptor [37] = experiment: Compound was evaluated for in vitro inhibition of [3H]-MK-801 at NMDA receptor.; format: protein-complex assay
Mus musculus [38] = experiment: Compound was evaluated for elevation of cGMP in vivo through subcutaneous route; format: functional; conditions: sc
Mus musculus [39] = experiment: Compound was evaluated for passive avoidance in vivo through intraperitoneal route; format: functional; conditions: ip
Mus musculus [40] = experiment: Compound was evaluated for nociception in electroshock mice model in vivo through ip route; format: functional

T2 sequence (Q00961 whole entry): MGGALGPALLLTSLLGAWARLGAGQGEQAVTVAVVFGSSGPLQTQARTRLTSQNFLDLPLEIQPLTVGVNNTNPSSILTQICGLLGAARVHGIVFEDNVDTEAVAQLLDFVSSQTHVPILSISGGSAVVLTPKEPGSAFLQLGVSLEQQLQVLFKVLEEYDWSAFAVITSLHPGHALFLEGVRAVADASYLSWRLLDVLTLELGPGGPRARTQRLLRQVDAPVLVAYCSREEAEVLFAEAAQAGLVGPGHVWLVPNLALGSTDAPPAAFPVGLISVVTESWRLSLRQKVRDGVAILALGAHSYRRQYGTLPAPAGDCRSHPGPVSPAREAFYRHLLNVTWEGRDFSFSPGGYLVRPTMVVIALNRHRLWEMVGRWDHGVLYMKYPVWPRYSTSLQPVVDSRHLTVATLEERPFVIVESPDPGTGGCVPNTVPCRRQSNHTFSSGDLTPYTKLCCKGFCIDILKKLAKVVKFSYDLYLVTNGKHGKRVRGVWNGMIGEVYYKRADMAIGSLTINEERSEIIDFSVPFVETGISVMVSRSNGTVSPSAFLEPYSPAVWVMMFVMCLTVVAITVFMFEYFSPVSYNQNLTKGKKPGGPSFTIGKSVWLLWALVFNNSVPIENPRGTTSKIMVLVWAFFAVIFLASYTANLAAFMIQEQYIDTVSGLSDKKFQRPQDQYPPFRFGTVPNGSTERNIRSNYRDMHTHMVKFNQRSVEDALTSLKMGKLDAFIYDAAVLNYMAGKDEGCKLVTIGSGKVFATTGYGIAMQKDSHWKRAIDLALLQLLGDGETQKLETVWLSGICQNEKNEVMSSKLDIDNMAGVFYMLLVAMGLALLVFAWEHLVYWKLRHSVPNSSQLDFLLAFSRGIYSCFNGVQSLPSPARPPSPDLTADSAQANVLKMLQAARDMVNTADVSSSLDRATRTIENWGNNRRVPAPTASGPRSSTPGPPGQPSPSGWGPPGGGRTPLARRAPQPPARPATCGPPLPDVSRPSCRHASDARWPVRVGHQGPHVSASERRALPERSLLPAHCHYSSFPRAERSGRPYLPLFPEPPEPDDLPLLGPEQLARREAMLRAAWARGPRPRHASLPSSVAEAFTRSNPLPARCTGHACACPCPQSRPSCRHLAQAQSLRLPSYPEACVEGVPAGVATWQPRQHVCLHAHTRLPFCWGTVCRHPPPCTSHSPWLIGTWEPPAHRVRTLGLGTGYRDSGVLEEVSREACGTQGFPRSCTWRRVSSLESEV

Compound: Oc1ccc(-c2c(O)nc3cc(Cl)cc(Cl)c3c2O)cc1
- IC50 [1]: 2100 nM
- IC50 (Glutamate NMDA receptor [2]): 11 nM

Compound: O=C(c1c(O)nc2cc(Cl)ccc2c1O)C1CC1
- ED50 (Mus musculus [3]): 4.1 mg/kg

Compound: O=C(NS(=O)(=O)c1ccccc1)c1nc2cc(Cl)c(Cl)cc2[nH]c1=O
- IC50 [4]: 11 µM
- ED50 (Mus musculus [5]): > 100 mg/kg
- IC50 (Glutamate NMDA receptor [2]): 120 nM

Compound: CC(CN(C)C)OC(=O)c1cc(O)c2c(Cl)cc(Cl)cc2n1 (configuration not stated)
- ED50 (Mus musculus [6]): 62 mg/kg

Compound: O=C(O)c1nc2c(Cl)cc(Cl)cc2[nH]1
- IC50 (Glutamate NMDA receptor [2]): 800 nM

Compound: O=C(O)c1cc(S)c2ccc(Cl)cc2n1
- ED50 (Rattus norvegicus [7]): 20 mg/kg
- IC50 [8]: 5 µM
- IC50 (Glutamate NMDA receptor [2]): 400 nM

Compound: NCc1ccc(NC(=O)CCc2c(C(=O)O)[nH]c3cc(Cl)cc(Cl)c23)cc1
- IC50 (Glutamate NMDA receptor [2]): 27 nM

Compound: NC(Cc1ccc(CC(=O)N[C@H]2C[C@H](C(=O)O)Nc3cc(Cl)cc(Cl)c32)cc1)C(=O)O (some centres not stated)
- ED50 (Mus musculus [9]): 0.5
- ED50 (Mus musculus [3]): 29 mg/kg

Compound: N[C@H]1C(=O)N(O)C[C@H]1O
- Ki [10]: 750 nM
- IC50 (Glutamate NMDA receptor [2]): 1300 nM

Compound: O=c1[nH][nH]c(=O)c2c(O)c3c(Cl)cc(Cl)cc3nc12
- MED50 (Gerbillinae [11]): 10 mg/kg
- IC50 (Glutamate NMDA receptor [2]): 100 nM

Compound: CN(C(=O)c1ccccc1)c1c(C(=O)O)[nH]c2cc(Cl)ccc12
- IC50 (Glutamate NMDA receptor [2]): 110 nM

Compound: NCc1ccc(CC(=O)N[C@H]2C[C@H](C(=O)O)Nc3cc(Cl)cc(Cl)c32)cc1
- ED50 (Mus musculus [9]): 3.5
- ED50 (Mus musculus [3]): 39 mg/kg

Compound: COC(=O)[C@H]1C[C@H](NC(=O)Cc2ccc(CN)cc2)c2c(Cl)cc(Cl)cc2N1
- ED50 (Mus musculus [3]): 32 mg/kg

Compound: N[C@H](/C=C/CCO)C(=O)O
- EC50 (Glutamate NMDA receptor [12]): 330 nM
- IC50 (Glutamate NMDA receptor [2]): 240 nM

Compound: O=C(O)Cc1c(C(=O)O)[nH]c2cc(Cl)ccc12
- ED50 (Rattus norvegicus [13]): 5.4 µg
- ED50 (Rattus norvegicus [13]; Rattus norvegicus, ip, read-out: ED50): > 50 mg/kg
- IC50 (Glutamate NMDA receptor [2]): 960 nM

Compound: CCOC(=O)Cc1c(C(=O)O)[nH]c2cc(Cl)ccc12
- MED50 [14]: 100 mg/kg
- IC50 (Glutamate NMDA receptor [2]): 630 nM

Compound: C[C@@H]1CN(O)C(=O)[C@@H]1N
- ED50 (Rattus norvegicus [15]): 13.5 mg/kg
- Ki [10]: 650 nM
- ED50 (Mus musculus [16]): 20 mg/kg
- ED50 (Mus musculus [17]): 26 mg/kg
- ED50 (Mus musculus [3]): 5.1 mg/kg
- ED50 (Mus musculus [18]): 13 mg/kg
- ED50 (Mus musculus [19]): 44 mg/kg
- IC50 (Glutamate NMDA receptor [2]): 1400 nM

Compound: O=C(Nc1ccccc1)N[C@H]1C[C@H](C(=O)O)Nc2cc(Cl)cc(Cl)c21
- ED50 (Mus musculus [3]): > 100 mg/kg
- IC50 (Glutamate NMDA receptor [2]): 7.8 nM

Compound: O=C(O)CSc1c(C(=O)O)[nH]c2cc(Cl)cc(Cl)c12
- EC50 [4]: 140 µM

Compound: O=C(O)CCc1c(C(=O)O)[nH]c2cc(Cl)cc(Cl)c12
- ED50 (Mus musculus [9]): 0.09 µg
- IC50 [20]: 2700 nM
- ED50 (Mus musculus [3]): 100 mg/kg

Compound: O=c1[nH]c2cc(Cl)ccc2c(O)c1-c1cccc(Oc2ccccc2)c1
- ED50 (Mus musculus [21]): 0.9 mg/kg
- ED50 (Mus musculus [22]): 0.9 mg/kg

Compound: O=c1[nH]c2cc(Cl)ccc2c(O)c1-c1cccc(Oc2ccsc2)c1
- ED50 (Mus musculus [21]): 0.8 mg/kg
- ED50 (Mus musculus [22]): 0.9 mg/kg
- IC50 (Glutamate NMDA receptor [2]): 1.4 nM

Compound: O=[N+]([O-])c1cc([N+](=O)[O-])c2nc(O)c(O)nc2c1
- IC50 [23]: 170 nM
- EC50 [24]: 400 nM
- IC50 [25]: 400 nM
- IC50 (Glutamate NMDA receptor [2]): 1000 nM

Compound: Oc1nc2cc(Cl)c(Cl)cc2n2ccnc12
- IC50 (Glutamate NMDA receptor [2]): 6000 nM

Compound: O=c1[nH][nH]c(=O)c2c1[nH]c1cc(Cl)cc(Cl)c12
- MED50 (Gerbillinae [26]): 10 mg/kg
- IC50 (Glutamate NMDA receptor [2]): 410 nM

Compound: N[C@@H]1CCN(O)C1=O
- Ki [10]: 2500 nM
- ED50 (Mus musculus [27]): 30 mg/kg
- ED50 (Mus musculus [28]): 30 mg/kg
- ED50 (Mus musculus [21]): 53 mg/kg
- ED50 (Mus musculus [29]): 890 mg/kg
- IC50 (Glutamate NMDA receptor [2]): 12500 nM

Compound: NCC(=O)Nn1ccc2ccccc21
- EC50 (Glutamate NMDA receptor [30]): 3.6 µM
- IC50 (Glutamate NMDA receptor [30]): 780 µM
- IC50 (Glutamate NMDA receptor [2]): 36000 nM

Compound: O=C1C2CC(CCN2)N1O (configuration not stated)
- Ki [10]: 3500 nM
- IC50 (Glutamate NMDA receptor [2]): 19000 nM

Compound: COC(=O)C1(N)CC1
- ED50 (Mus musculus [31]): 100 mg/kg
- ED50 (Mus musculus [32]): 46 mg/kg
- ED50 (Mus musculus [33]): 200 mg/kg
- IC50 (Glutamate NMDA receptor [2]): > 40000 nM

Compound: O=C(C[C@@H]1CCc2cc(Br)cc3[nH]c(=O)c(=O)n1c23)Nc1ccccc1
- IC50 (Glutamate NMDA receptor [2]): 2.6 nM

Compound: O=c1cc(O)c2c(Cl)cc(Cl)cc2[nH]c1=O
- IC50 (Glutamate NMDA receptor [2]): 31 nM

Compound: O=C(O)c1cc(O)c2c(Cl)cc(Cl)cc2n1
- ED50 (Mus musculus [34]): 67 mg/kg
- ED50 (Mus musculus [35]): 7.5 nM
- ED50 (Mus musculus [3]): > 250 mg/kg

Compound: N[C@@H](/C=C/CCO)C(=O)O
- EC50 (Glutamate NMDA receptor [12]): 930 nM
- IC50 (Glutamate NMDA receptor [2]): 750 nM

Compound: O=C(O)C1Nc2cc(Cl)cc(Cl)c2S(=O)(=O)N1Cc1cccc(Br)c1 (configuration not stated)
- IC50 (Glutamate NMDA receptor [2]): 8 nM

Compound: O=C(O)Cn1c(=O)c(=O)[nH]c2cc(Cl)c(Cl)cc21
- IC50 (Glutamate NMDA receptor [2]): 110 nM

Compound: N#Cc1cc2c(cc1[N+](=O)[O-])=NC(=O)C(=O)N=2
- IC50 (Glutamate NMDA receptor [2]): 4800 nM

Compound: NC1(C(=O)O)CCC1 [1-AMINOCYCLOBUTANE CARBOXYLIC ACID]
- IC50 [36]: 18.5 µM
- IC50 (Glutamate NMDA receptor [2]): 19000 nM

Compound: NC1(C(=O)O)CC1 [1-Aminocyclopropane carboxylic acid]
- EC50 (Glutamate NMDA receptor [37]): 140 nM
- IC50 (Glutamate NMDA receptor [2]): 40 nM

Compound: O=C(O)c1nc2cc(Cl)c(Cl)cc2nc1O [6,7-DICHLORO-3-HYDROXY-2-QUINOXALINECARBOXYLIC ACID]
- IC50 (Glutamate NMDA receptor [2]): 460 nM

Compound: N[C@@H]1CONC1=O [CYCLOSERINE]
- ED50 (Mus musculus [38]): 1.25 mg/kg
- ED50 (Mus musculus [39]): 3 mg/kg

Compound: O=c1[nH]c2cc([N+](=O)[O-])c([N+](=O)[O-])cc2[nH]c1=O [DNQX]
- IC50 (Glutamate NMDA receptor [2]): 1300 nM

Compound: O=c1[nH]c2cc(Cl)c(Cl)c([N+](=O)[O-])c2[nH]c1=O [LICOSTINEL]
- ED50 (Mus musculus [40]): 5 mg/kg

Compound: O=C(O)c1cc(=O)c2ccccc2[nH]1 [TRANSTORINE]
- ED50 (Mus musculus [35]): 20 nM
- ED50 (Mus musculus [3]): > 250 mg/kg
